# Entries after “also recorded” stand apart in the source; their conditions may differ.
# Key:
# [1] = tested on: scleroderma lung fibroblasts (SLF); experiment: CSD peptide treatment of SLF, Western blotting; format: cell-based, human
# Text: (§1) Fibroblasts were derived from lung tissue obtained at autopsy from scleroderma patients (SLF) and from age-, race-, and sex-matched normal subjects (NLF) and cultured as previously described (44). Cells were used in passages 2-4. The group of scleroderma patients fulfilled the criteria of American college of Rheumatology for the diagnosis of scleroderma with lung involvement. Normal human lung tissue was obtained from the Brain and Tissue Bank for Developmental Disorders (Baltimore, Md.) or from the National Disease Research Interchange (Philadelphia, Pa.). Scleroderma lung tissue was obtained from the Division of Pathology and Laboratory Medicine at the Medical University of South Carolina (MUSC). The study was approved by the Institutional Review Board for Human Subject Research at the MUSC.
# (§2) The CSD peptide (amino acids 82-101 of caveolin-1; […]) (SEQ ID NO: 1) and a scrambled control peptide ([…]) (SEQ ID NO: 2) were synthesized as fusion peptides to the C terminus of the Antennapedia internalization sequence (RQIKUVFQNRRMKWKK) (SEQ ID NO: 3). Before each experiment, desiccated peptides were dissolved at a final 1 mM in 10% DMSO as described by Bernatchez et al. (4). Cells in 6-well plates at 70-80% confluence were then incubated with 1 ml serum-free DMEM containing […] CSD or scrambled peptide. After 6 h, the culture medium and cell layer were harvested.
# (§3) Cell layers were harvested in boiling SDS-PAGE sample buffer; medium was dialyzed, lyophilized, and resuspended in sample buffer. Aliquots of culture medium or of cell layer representing material derived from the same number of cells was probed using the following primary antibodies and appropriate secondary antibodies. Culture medium: goat anti-human collagen I (AB758P) and rabbit anti-human tenascin-C (AB19011) from Chemicon International (Temecula, Calif.). Cell layer: rabbit antibodies against PKCα (sc-208), PKCε (sc-214), activated JNK (sc-12882), activated Akt Thr 308 (sc-166646R) and caveolin-1 (sc-894) from Santa Cruz Biotechnology (Santa Cruz, Calif.); rabbit antibodies against ERK 1/2 (9102), activated ERK 1/2 (9106), JNK (9252), Akt (9272), MEK 1/2 (9122), and activated MEK 1/2 (9121) from Cell Signaling (Beverly, Mass.); mouse monoclonal anti-ASMA (clone 1A4) from Sigma (Saint Louis, Mo.), and mouse monoclonal anti-actin (MAB1501) from Chemicon International (Temecula, Calif.).
# (§4) Immunoreactive bands were quantified by densitometry using the Image 1.32J NIH software. For statistical analysis the raw densitometric data were processed and analyzed using the Prism 3.0 (GraphPad Software Inc.) statistical analysis software.
# [2] = tested on: normal lung fibroblasts (NLF); experiment: CSD peptide treatment of NLF, Western blotting; format: cell-based, human
# Text: as §1, §2, §3, §4
# eNOS = conditions: endothelial cells; Bernatchez et al. (4); cited from earlier work
# [3] = tested on: scleroderma lung fibroblasts (SLF); experiment: Immunocytochemistry and laser confocal microscopy of CSD peptide-treated SLF; format: cell-based, human
# Protocol: (§5) NLF or SLF cultured in 4-well glass chamber slides (Nalge Nunc International, Naperville, Ill.) as previously described (43) were incubated with CSD peptide or scrambled (Scr) peptide, fixed, permeabilized, and stained red with 7-aminoactinomycin D to detect nuclei and green using appropriate primary and secondary antibodies to detect caveolin-1 or ph-ERK. Images were captured by confocal microscopy.
# as §5, with “ph-JNK” for “caveolin-1”, “ph-Akt.” for “ph-ERK.”
# (§6) NLF and SLF were cultured in 4-well glass chamber slides (Nalge Nunc International, Naperville, Ill.) and stained as previously described (43) using the indicated primary antibodies and appropriate secondary antibodies tagged with Alexa Fluoro® 488 (Molecular Probes, Eugene, Oreg.). Nuclei were stained with 7-aminoactinomycin D (Molecular Probes, Eugene, Oreg.). Images were acquired using a Zeiss 510SML Laser Confocal Microscope (excitation S490/20, emission D528/38) fitted with an oil-immersion objective (40×/1.4).
# [4] = tested on: normal lung fibroblasts (NLF); experiment: Collagen and ASMA expression in NLF treated with CSD and its subdomains; format: cell-based, human; conditions: 3 μM peptide
# Protocol: (§7) The indicated cell types (NLF and SLF) were cultured as described with 0, 1, 3, or 5 μM of the indicated peptides. Collagen in the medium and ASMA and actin (loading control) in the cell layer were detected by Western blotting. Blots were quantified densitometrically. The level of collagen and ASMA in cells treated with no peptide (divided by the level of actin) was set to 100 arbitrary units. Because SLF express higher levels of collagen and ASMA than do NLF, 100 arbitrary of collagen in SLF is equivalent to 195 arbitrary units of collagen in NLF and 100 arbitrary units of ASMA in SLF is equivalent to 255 arbitrary units of ASMA in NLF. The data presented are the average of the densitometric quantification of three independent experiments.
# (§8) To compare the activity of CSD to its subdomains, five subdomains [A (82-88 amino acids), B (89-95), C (96-101), AB (82-95) and BC (89-101)] were synthesized in fusion with the Antennapedia internalization sequence and added to culture medium at 1, 3, and 5 μM. […] Very different results were obtained when examining ASMA expression.
# [5] = tested on: scleroderma lung fibroblasts (SLF); experiment: Collagen and ASMA expression in SLF treated with CSD and its subdomains; format: cell-based, human
# Protocol: as §7, §8
# [6] = tested on: normal lung fibroblasts (NLF); experiment: Immunocytochemistry and laser confocal microscopy of CSD peptide-treated NLF; format: cell-based, human
# Protocol: as §5
# as §5, with “ph-JNK” for “caveolin-1”, “ph-Akt.” for “ph-ERK.”
# as §6
# [7] = 5 μM CSD peptide vs scrambled peptide
# [8] = 5 μM CSD peptide vs scrambled peptide, collagen in culture medium, Western blotting
# [9] = CSD peptide vs scrambled peptide
sequence,measurement,setting,value
DGIWKASFTTFTVTKYWFYR [CSD peptide],time in which inhibition of collagen expression occurs,[1]; 5 μM CSD,less than 5 hours
same,decrease of MEK/ERK activation,[1]; [7],about 50%
same,inhibition of collagen expression,[1]; [8],> 95%
same,activation of Akt,[1]; CSD peptide vs Scr peptide,inhibited
same,activation of JNK,[1]; CSD peptide vs Scr peptide,inhibited
same,"expression of total MEK, total ERK, total Akt, or total JNK",[1]; CSD peptide vs Scr peptide,did not affect
same,ASMA expression,[1]; [9],inhibited
same,"expression of caveolin-1 itself, PKCα, or PKCε",[1]; [9],did not affect
same,tenascin-C expression,[1]; [9],inhibited
same,time in which inhibition of collagen expression occurs,[2]; 5 μM CSD,less than 5 hours
same,decrease of MEK/ERK activation,[2]; [7],about 50%
same,inhibition of collagen expression,[2]; [8],> 95%
same,activation of Akt,[2]; CSD peptide vs Scr peptide,inhibited
same,activation of JNK,[2]; CSD peptide vs Scr peptide,inhibited
same,"expression of total MEK, total ERK, total Akt, or total JNK",[2]; CSD peptide vs Scr peptide,did not affect
same,"expression of caveolin-1 itself, PKCα, or PKCε",[2]; [9],did not affect
same,tenascin-C expression,[2]; [9],inhibited
same,eNOS activity,eNOS,most strongly inhibited
same,level of caveolin-1 expression detected by IHC,[3]; CSD peptide vs Scr peptide,did not affect
same,distribution of caveolin-1 staining,"[3]; CSD peptide vs Scr peptide, particularly in SLF",staining associated with the plasma membrane becoming more prominent
same,distribution of activated Akt staining,[3]; CSD peptide vs control peptide,"preferentially decreased perinuclear, nuclear, and cytoplasmic staining while increasing staining associated with the plasma membrane"
same,distribution of activated JNK staining,[3]; CSD peptide vs control peptide,preferentially decreased perinuclear staining and increased staining associated with the plasma membrane; also recorded: eliminated the intense punctate cytoplasmic staining
same,level of activated Akt (IHC),[3]; CSD peptide vs control peptide,decreases
same,level of activated ERK (IHC),[3]; CSD peptide vs control peptide,decreases
same,level of activated JNK (IHC),[3]; CSD peptide vs control peptide,decreases
same,localization of residual activated ERK staining,[3]; after CSD peptide,primarily perinuclear and cytoplasmic
same,collagen expression,[4],completely inhibited
same,collagen expression,[5]; 3 μM peptide,completely inhibited
same,inhibition of ASMA expression,[5]; 5 μM peptide,about 80%
same,ASMA expression,"[5]; peptides at 1, 3, and 5 μM",inhibited
same,distribution of caveolin-1 staining,[6]; CSD peptide vs Scr peptide,staining associated with the plasma membrane becoming more prominent
same,level of caveolin-1 expression detected by IHC,[6]; CSD peptide vs Scr peptide,did not affect
same,distribution of activated Akt staining,[6]; CSD peptide vs control peptide,"preferentially decreased perinuclear, nuclear, and cytoplasmic staining while increasing staining associated with the plasma membrane"
same,distribution of activated JNK staining,[6]; CSD peptide vs control peptide,preferentially decreased perinuclear staining and increased staining associated with the plasma membrane
same,level of activated Akt (IHC),[6]; CSD peptide vs control peptide,decreases
same,level of activated ERK (IHC),[6]; CSD peptide vs control peptide,decreases
same,level of activated JNK (IHC),[6]; CSD peptide vs control peptide,decreases
same,localization of residual activated ERK staining,[6]; after CSD peptide,primarily perinuclear and cytoplasmic
